In patent publication US11154540B2, “Methods of treating ophthalmic disease/disorder or injury with ibudilast” (MediciNova, Inc., priority 2018, dated 2021):
Entries after “also recorded” stand apart in the source; their conditions may differ.

Legend:
[1] = system: subjects with primary or secondary progressive multiple sclerosis; test: Optical coherence tomography (OCT) outcomes in the SPRINT-MS phase II randomized, double-blind, placebo-controlled trial; assay type: in vivo, human
Procedure: This was a multicenter, randomized, double-blind, placebo-controlled, parallel-group study designed to evaluate the safety, tolerability and activity of ibudilast administered twice daily over a 96 week period in subjects with primary or secondary progressive multiple sclerosis. The primary objectives of the study were: • to evaluate the activity of ibudilast (100 mg/d) versus placebo at 96 weeks as measured by quantitative magnetic resonance imaging (MRI) analysis for whole brain atrophy using brain parenchymal fraction (BPF); • to evaluate the safety and tolerability of ibudilast (100 mg/d) versus placebo administered orally in subjects with primary and secondary progressive multiple sclerosis; and • to study the effect of ibudilast on macular measures from the SPRINT-MS phase II trial of ibudilast in progressive MS. The major secondary objectives were to evaluate the activity of ibudilast at 96 weeks versus placebo as measured by: • Diffusion tensor imaging (DTI) in descending pyramidal white matter tracts; • Magnetization transfer ratio (MTR) imaging in normal-appearing brain tissue; • Retinal nerve fiber layer as measured by Optical coherence tomography (OCT); and • Cortical atrophy as measured by cortical longitudinal atrophy detection algorithm ([…] total of 255 male and female subjects from 21 to 65 years old, inclusive, were enrolled into one of two treatment arms (ibudilast 100 mg/d or matching-placebo). Study population for SPRINT-MS was a mix of primary (53%) and secondary progressive (47%) MS, average age 56 years and median expanded disability status scale (EDSS)=6.0 at baseline. Randomization of subjects was stratified by disease status ([…]), and by immunomodulating therapy status: “untreated”, glatiramer acetate (GA), or interferon-beta. Subjects were allowed to continue using of interferon-beta (IFN-β) or glatiramer acetate while participating in this study. During the study, subjects were allowed to change medications from one injectable to the other. Pegylated interferon beta-1 were also allowed (if approved by the FDA). Inhaled and topical steroids are allowed. If a relapse episode occurred, a single course of systemic corticosteroids was permitted, as prescribed by the treating neurologist. Subjects returned to the clinic for follow-up visits on a regular basis at Week 4, 8, 12, 24, 36, 48, 60, 72, 84 and 96. The double-blind Treatment Phase consisted of a Baseline visit followed by 10 scheduled clinic visits. The Baseline Visit had to have occurred within 45 days following the Screening Visit. At the Baseline Visit (Day 1), subjects who completed all of the screening assessments and continued to meet eligibility criteria were randomized to one of two treatment groups (ibudilast 100 mg/d or placebo) in a 1:1 ratio. […] Subjects took their first dose of study medication (30 mg ibudilast or placebo) on the evening of the Baseline Visit (Day 1). On the morning of Day 2, all subjects begun a 3 capsule BID dosing regimen through Day 14. Subjects randomized to ibudilast started at 60 mg/d (30 mg BID) on Day 2 and remained on 60 mg/d through Day 14. Beginning on Day 15, all subjects increased dosing to 5 capsules BID regimen; those randomized to the ibudilast treatment arm were taking 100 mg/d. After Day 15, subjects with intolerable side-effects (e.g., nausea, diarrhea, vertigo) were allowed to reduced their dose to either 4 capsules twice a day (80 mg/d for those taking ibudilast) or 3 capsules twice a day (60 mg/d for those taking ibudilast). Subjects with intolerable side-effects (e.g., nausea, diarrhea, vertigo) at the end of Day 14 were allowed to continue taking 3 capsules twice a day at the Investigator's discretion. At the Investigator's discretion, the daily dose of ibudilast were potentially adjusted between 3 capsules twice a day, 4 capsules twice a day, and 5 capsules twice a day over the first 8 weeks of treatment. […]

[2] = Sanftner et al., Xenobiotica 2009 39: 964-977; cited from earlier work

## CC(C)C(=O)c1c(C(C)C)nn2ccccc12 [ibudilast, 3-isobutyryl-2-isopropylpyrazolo[1,5-a]pyridine]
[1]; Cirrus OCT
  macular volume loss and GCIP layer thinning (in words): favorable changes towards reduced macular volume loss and GCIP layer thinning
[1]; Cirrus OCT, ibudilast vs placebo, 95% CI: −0.0090 to 0.0499
  rate of macular volume loss, between-group difference per year: 0.0204 mm^3
[1]; Cirrus OCT, ibudilast vs placebo, 95% CI: −0.1189 to 1.0578
  ganglion cell-inner plexiform layer thinning, between-group difference per year: 0.469 µm/year
[1]; Spectralis OCT over 96 weeks
  annual macular volume loss compared to placebo (in words): slower
[1]; Spectralis OCT, ibudilast vs placebo, 95% CI: 0.0008 to 0.0623
  rate of macular volume loss, between-group difference per year: 0.0316 mm^3
[1]; patients followed with Cirrus OCT, 95% CI: −0.02167 to 0.020866, placebo −0.02083, p=0.1734
  estimated rate of macular volume change per year: −0.0004 mm^3
[1]; patients followed with Spectralis OCT, 95% CI: −0.02693 to 0.01688, placebo −0.03659, p=0.044
  estimated rate of macular volume change per year: −0.00503 mm^3
[2]
  CNS distribution / penetration (in words): distributes well to the CNS; also recorded: good CNS penetration
